Holding throughout (assay type): cell-based
The subject of data set [1] is CHIKV. In words: microbe, parasite or virus in culture. To be noted: Chikungunya virus, read-out: CHIK EC50 (μM).
Another data set relates to VEEV. In words: microbe, parasite or virus in culture. Particulars: Venezuelan equine encephalitis virus, NHDF; for EC90: read-out: VEEV EC90 (μM); for log reduction at 10 µM: read-out: VEEV VTR (logs).
The next data set in a line: in vitro. Particulars: human.
The subject of the next data set is VEEV (TC-83). In words: microbe, parasite or virus in culture. To be noted: Venezuelan equine encephalitis virus, read-out: VEEV EC50 (μM).
The subject of data set [2] is CHIKV. In words: CHIKV virus titer reduction (VTR) assay in NHDF cells. To be noted: Chikungunya virus; for EC90: read-out: CHIKV EC90 (μM); for log reduction at 10 µM: read-out: CHIKV VTR (logs).

Structures are written as SMILES. A value given as a limit tells only on which side of the number the result lay.

15 molecules from patent US20240343707A1, “SUBSTITUTED PHENYL ETHYNYL PYRIMIDINES AS POTENT INHIBITORS OF ALPHAVIRUSES” (Southern Research Institute, priority 2023, published 2024) can be followed below.

As to `O=C1CCc2cc(C(=O)Nc3cccc(C#Cc4ncccn4)c3)ccc2N1` [Compound 5, 2-oxo-N-[3-(2-pyrimidin-2-ylethynyl)phenyl]-3,4-dihydro-1H-quinoline-6-carboxamide], the EC50 in the data set on CHIKV [1] was 3.31 µM; with VEEV (TC-83) it was 3.98 µM. Also, the EC90 worked out at 1.15 µM with VEEV and 1.09 µM in the data set with CHIKV [2]. In addition, the log reduction at 10 µM with VEEV was 6.43; with CHIKV [2] it was 2.72. The CC50 in “in vitro” was over 40000 nM.

With `O=C(NCc1ccc2c(c1)OC(F)(F)O2)c1cccc(C#Cc2ncccn2)c1` [Compound 7, N-[(2,2-difluoro-1,3-benzodioxol-5-yl)methyl]-3-(2-pyrimidin-2-ylethynyl)benzamide], the EC50 is 4.32 µM in the data set with CHIKV [1] and over 40 µM in the data set on VEEV (TC-83). Besides, the log reduction at 10 µM in the data set on VEEV was 3.88; in the data set with CHIKV [2], 4.43. For the same molecule, the half-maximal cytotoxic concentration (CC50) in “in vitro” was over 40000 nM.

Consider `O=C(Nc1ccc2c(c1)CCCCC2)c1cccc(C#Cc2ncccn2)c1` [Compound 8, 3-(2-pyrimidin-2-ylethynyl)-N-(6,7,8,9-tetrahydro-5H-benzo[7]annulen-3-yl)benzamide], for which the EC50 in the data set with CHIKV [1] was 0.71 µM; in the data set on VEEV (TC-83), over 40 µM. Also, the EC90 in the data set on VEEV is 2.43 µM; with CHIKV [2], 0.43 µM. Further, the log reduction at 10 µM in the data set on VEEV was 7.97; with CHIKV [2], 6.89. Besides, it took 6970 nM to reach half-maximal cytotoxicity in the data set “in vitro” (CC50).

In the case of `O=C(Nc1cccc(C#Cc2ncccn2)c1)c1nc2c(s1)CCCC2` [Compound 9, N-[3-(2-pyrimidin-2-ylethynyl)phenyl]-4,5,6,7-tetrahydro-1,3-benzothiazole-2-carboxamide], the figures for the EC50 in the data set with CHIKV [1] and with VEEV (TC-83) were 5.78 µM and over 40 µM, respectively. The EC90 in the data set with VEEV is 7.37 µM; with CHIKV [2], 3.9 µM. Also, the log reduction at 10 µM in the data set on VEEV is 2.59; with CHIKV [2], 1.65. This molecule also came in with a CC50 in “in vitro” of 9590 nM.

Consider `O=C1CCc2cc(S(=O)(=O)Nc3cccc(C#Cc4ncccn4)c3)ccc2N1` [Compound 10, 2-oxo-N-[3-(2-pyrimidin-2-ylethynyl)phenyl]-3,4-dihydro-1H-quinoline-6-sulfonamide], for which the EC50 with CHIKV [1] and with VEEV (TC-83) was over 40 µM each time. Further, the log reduction at 10 µM was 0.81 in the data set with VEEV and 0.08 in the data set on CHIKV [2]. In “in vitro”, the CC50 worked out at 33200 nM. Besides, the EC90 with CHIKV [2] was determined as 1.13 µM.

With `O=C(Nc1cccc(C#Cc2ncccn2)c1)C12CC3CC(CC(C3)C1)C2` [Compound 11, N-[3-(2-pyrimidin-2-ylethynyl)phenyl]adamantane-1-carboxamide], the EC50 in the data set with CHIKV [1] and in the data set on VEEV (TC-83) was over 40 µM in each case. Also, the EC90 in the data set with VEEV is 20.1 µM; in the data set with CHIKV [2], 20.3 µM. Besides, the log reduction at 10 µM stood at 1.02 in the data set with VEEV and 0.3 in the data set on CHIKV [2]. The molecule further had a CC50 in “in vitro” of over 40000 nM.

As to `O=C(Nc1ccc2c(c1)CCCN2)c1cccc(C#Cc2ncccn2)c1` [Compound 12, 3-(2-pyrimidin-2-ylethynyl)-N-(1,2,3,4-tetrahydroquinolin-6-yl)benzamide], the figures for the EC50 in the data set with CHIKV [1] and in the data set with VEEV (TC-83) were 1.02 µM and 1.39 µM, respectively. Also, the results for the EC90 in the data set on VEEV and in the data set with CHIKV [2] were 0.72 µM and 0.74 µM, respectively. The log reduction at 10 µM in the data set on VEEV amounted to 5.47; in the data set on CHIKV [2], 7.58. Further, it took 38800 nM to reach half-maximal cytotoxicity in the data set “in vitro” (CC50).

Regarding `O=C1CC(Cc2ccc(NC(=O)c3cccc(C#Cc4ncccn4)c3)cc2)C(=O)N1` (centres unmarked) [Compound 13, N-[4-[(2,5-dioxopyrrolidin-3-yl)methyl]phenyl]-3-(2-pyrimidin-2-ylethynyl)benzamide], the EC50 in the data set on CHIKV [1] turned out to be 2.8 µM; in the data set with VEEV (TC-83), 7.19 µM. The concentration for an effect of 90% (EC90) in the data set with VEEV came out at 2.53 µM; in the data set on CHIKV [2], 0.16 µM. Further, the log reduction at 10 µM with VEEV came out at 2.45; in the data set with CHIKV [2], 2.76. For the same molecule, in “in vitro”, the CC50 is over 40000 nM.

Regarding `O=C1CCc2ccc(NC(=O)c3cccc(C#Cc4ncccn4)c3)cc2N1` [Compound 17, N-(2-oxo-3,4-dihydro-1H-quinolin-7-yl)-3-(2-pyrimidin-2-ylethynyl)benzamide], the results for the EC50 in the data set with CHIKV [1] and in the data set with VEEV (TC-83) were 0.83 µM and 2.18 µM, respectively. Further, the EC90 with VEEV is 0.45 µM; in the data set on CHIKV [2], 0.61 µM. Further, the log reduction at 10 µM in the data set on VEEV stood at 6.81; with CHIKV [2], 6.94. In the data set “in vitro”, this molecule displayed a CC50 of over 40000 nM.

Take `O=C(Nc1cccc(C#Cc2ncccn2)c1)c1cc(C2CC2)[nH]c(=O)c1` [Compound 18, 2-cyclopropyl-6-oxo-N-[3-(2-pyrimidin-2-ylethynyl)phenyl]-1H-pyridine-4-carboxamide]: the EC50 in the data set on CHIKV [1] was found to be 28.1 µM; in the data set with VEEV (TC-83) it was 10.3 µM. In addition, the EC90 in the data set with VEEV is 5.66 µM. Besides, the values for the log reduction at 10 µM in the data set with VEEV and in the data set on CHIKV [2] were 2.43 and 0.62, respectively. The same molecule yielded a CC50 in “in vitro” of over 40000 nM.

For the molecule `CC(C)(C)c1ccc(NC(=O)c2cccc(C#Cc3ncccn3)c2)cc1` [Compound 19, N-(4-tert-butylphenyl)-3-(2-pyrimidin-2-ylethynyl)benzamide], the EC50 in the data set on CHIKV [1] turned out to be 1.04 µM; in the data set with VEEV (TC-83) it was 0.93 µM. The figures for the EC90 in the data set on VEEV and in the data set with CHIKV [2] were 0.3 µM and 0.2 µM, respectively. For the same molecule, the log reduction at 10 µM was 8.26 in the data set on VEEV and 7.59 with CHIKV [2]. This molecule also gave a CC50 in the data set “in vitro” of 5080 nM.

As for `CC(C)(C#N)c1ccc(NC(=O)c2cccc(C#Cc3ncccn3)c2)cc1` [Compound 20, N-[4-(1-cyano-1-methyl-ethyl)phenyl]-3-(2-pyrimidin-2-ylethynyl)benzamide], the 50% effective concentration (EC50) with CHIKV [1] stood at 0.27 µM; in the data set on VEEV (TC-83), 0.34 µM. Further, the EC90 turned out to be 0.06 µM in the data set with VEEV and 0.07 µM in the data set with CHIKV [2]. Also, the log reduction at 10 µM was determined as 8.08 in the data set on VEEV and 10 in the data set with CHIKV [2]. The molecule further yielded a CC50 in the data set “in vitro” of 17800 nM.

As for `O=C(Nc1cccc(C#Cc2ncccn2)c1)c1ccc(N2CCCCC2=O)cc1` [Compound 21, 4-(2-oxo-1-piperidyl)-N-[3-(2-pyrimidin-2-ylethynyl)phenyl]benzamide], the EC50 was over 40 µM in the data set on CHIKV [1] and 32.2 µM in the data set on VEEV (TC-83). Further, the log reduction at 10 µM in the data set with VEEV was found to be 0.72; in the data set on CHIKV [2], 1.83. For the same molecule, in “in vitro”, the CC50 was over 40000 nM.

In the case of `O=C(Nc1ccc2c(c1)CCCC2)c1cccc(C#Cc2ncccn2)c1` [Compound 22, 3-(2-pyrimidin-2-ylethynyl)-N-tetralin-6-yl-benzamide], the EC50 with CHIKV [1] was found to be 0.83 µM; with VEEV (TC-83), 1.26 µM. The EC90 in the data set with VEEV and in the data set on CHIKV [2] was 0.7 µM throughout. Also, in “in vitro”, the CC50 was over 40000 nM.

`O=C(Nc1ccc(C(F)(F)F)cc1)c1cccc(C#Cc2ncccn2)c1` [Compound 23, 3-(2-pyrimidin-2-ylethynyl)-N-[4-(trifluoromethyl)phenyl]benzamide]: the EC50 in the data set on CHIKV [1] is 1.2 µM; in the data set on VEEV (TC-83), 0.71 µM. The EC90 in the data set with VEEV is 0.82 µM; in the data set on CHIKV [2] it was 0.85 µM. Moreover, in “in vitro”, the CC50 is over 40000 nM.

One may read the EC50 as the midpoint of the concentration-response curve. For orientation: EC90 means the point of the concentration-response curve where the effect stands at 90%. The CC50 is the concentration that lowers cell viability or growth by half. Low values mean harm at low concentration, high ones better tolerance by the cells.
